Drawing on patent publication US8222219B2, “Glucopyranoside compound” (Mitsubishi Tanabe Pharma Corporation, priority 2003, dated 2012), this text covers IC50 and Urinary glucose for 37 compounds.

The first experiment concerns the target T1, human SGLT2 (Homo sapiens, UniProt P31639).
T1 construct: expressed in transfected cells; host or cells: CHOK1 (CHO-K1) cells, kept under Geneticin selection
T1 sequence (P31639 1-672): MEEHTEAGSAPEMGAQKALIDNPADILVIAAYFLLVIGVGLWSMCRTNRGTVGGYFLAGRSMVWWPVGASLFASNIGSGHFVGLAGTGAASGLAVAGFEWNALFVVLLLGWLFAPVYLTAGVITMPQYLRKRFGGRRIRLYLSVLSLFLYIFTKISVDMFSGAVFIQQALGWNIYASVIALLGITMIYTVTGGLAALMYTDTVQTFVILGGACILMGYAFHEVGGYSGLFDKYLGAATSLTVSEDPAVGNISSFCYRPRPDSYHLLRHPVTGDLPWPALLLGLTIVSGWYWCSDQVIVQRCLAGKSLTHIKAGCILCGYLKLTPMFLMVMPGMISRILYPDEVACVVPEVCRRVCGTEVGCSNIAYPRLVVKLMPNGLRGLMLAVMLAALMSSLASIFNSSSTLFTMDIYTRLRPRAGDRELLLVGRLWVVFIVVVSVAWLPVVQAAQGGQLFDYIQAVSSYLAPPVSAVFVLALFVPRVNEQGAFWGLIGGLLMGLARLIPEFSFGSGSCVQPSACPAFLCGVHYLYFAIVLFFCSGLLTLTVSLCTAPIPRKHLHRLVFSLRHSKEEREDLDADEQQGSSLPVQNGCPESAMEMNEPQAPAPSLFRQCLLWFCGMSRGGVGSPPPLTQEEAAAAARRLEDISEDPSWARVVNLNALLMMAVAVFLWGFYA
Kind of experiment: Assay for SGLT2 inhibition (14C-AMG uptake in CHOK1 cells expressing human SGLT2). To be noted: CHOK1 cells expressing human SGLT2; 14C-AMG uptake 0.5 mM, 2 hours at 37° C.; read-out: IC50. Format: cell-based. How it is done: 1. Assay for SGLT2 Inhibition
Compounds described in the above examples were used for the SGLT2 inhibition assay.
CHOK1 cells expressing human SGLT2 were seeded in 24-well plates at a density of 400,000 cells/well in F-12 nutrient mixture (Ham's F-12) containing 10% fetal bovine serum, 400 μg/ml Geneticin, 50 units/ml sodium penicillin G (Gibco-BRL) and 50 μg/ml streptomycin sulfate. […] Test compounds were dissolved in DMSO. The final concentration of DMSO was 0.5%. The transport reaction was initiated by addition of 50 μl [^14C]-methyl-α-D-glucopyranoside (^14C-AMG) solution (final concentration, 0.5 mM). After incubation for 2 hours at 37° C., the uptake was stopped by aspiration of the incubation mixture, the cells were washed three times with ice-cold PBS. Then, cells were solubilized with 0.3 N NaOH and aliquots were taken for determination of radioactivity by a liquid scintillation counter. Nonspecific AMG uptake was defined as that which occurred in the presence of 100 μM of phlorizin, a specific inhibitor of sodium-dependent glucose cotransporter. Specific uptake was normalized for the protein concentrations measured by the method of Bradford.
As usually defined, the IC50 is the midpoint of a concentration-inhibition curve. For `Cc1ccc([C@@H]2O[C@H](CO)[C@@H](O)[C@H](O)[C@H]2O)cc1Cc1ccc(-c2ccc(F)nc2)s1` [Example 120, 1-(β-D-glucopyranosyl)-3-(5-(6-fluoro-3-pyridyl)-2-thienylmethyl)-4-methylbenzene], the IC50 was 3.4 nM.
As to `N#Cc1cccc(-c2ccc(Cc3cc([C@@H]4O[C@H](CO)[C@@H](O)[C@H](O)[C@H]4O)ccc3Cl)s2)c1` [Example 123, 1-(β-D-glucopyranosyl)-4-chloro-3-(5-(3-cyanophenyl)-2-thienylmethyl)benzene], the IC50 was determined as 1.4 nM.
Consider `Cc1ccc([C@@H]2O[C@H](CO)[C@@H](O)[C@H](O)[C@H]2O)cc1Cc1ccc(-c2cccc(C#N)c2)s1` [Example 127, 1-(β-D-glucopyranosyl)-3-(5-(3-cyanophenyl)-2-thienylmethyl)-4-methylbenzene], for which the IC50 stood at 1.3 nM.
Still for that read-out and setting: the result for `CCc1cccc(-c2ccc(Cc3cc([C@@H]4O[C@H](CO)[C@@H](O)[C@H](O)[C@H]4O)ccc3C)s2)c1` [Example 140] reads 5.9 nM; that for `COc1ccc(-c2ccc(Cc3cc([C@@H]4O[C@H](CO)[C@@H](O)[C@H](O)[C@H]4O)ccc3C)s2)cc1` [Example 144], 4.1 nM; that for `Cc1ccc([C@@H]2O[C@H](CO)[C@@H](O)[C@H](O)[C@H]2O)cc1Cc1ccc(-c2cccc(F)n2)s1` [Example 146], 2.2 nM.
The same measure, in the same setting: in the case of `Cc1ccc([C@@H]2O[C@H](CO)[C@@H](O)[C@H](O)[C@H]2O)cc1Cc1ccc(-c2ccnc(F)c2)s1` [Example 217] it was 3.6 nM; in that of `Cc1ccc([C@@H]2O[C@H](CO)[C@@H](O)[C@H](O)[C@H]2O)cc1Cc1ccc(-c2ccc(C#N)c(F)c2)s1` [Example 219], 6.7 nM.
The same measure, in the same setting: the result for `Cc1ccc([C@@H]2O[C@H](CO)[C@@H](O)[C@H](O)[C@H]2O)cc1Cc1ccc(-c2cccc(OC(F)F)c2)s1` [Example 222] reads 1.8 nM; that for `Cc1ccc([C@@H]2O[C@H](CO)[C@@H](O)[C@H](O)[C@H]2O)cc1Cc1cc2ccc(OC(F)F)cc2s1` [Example 224], 5.9 nM; that for `Cc1ccc([C@@H]2O[C@H](CO)[C@@H](O)[C@H](O)[C@H]2O)cc1Cc1ccc(-c2cccc(C#N)n2)s1` [Example 225], 1.5 nM.
For the compound `Cc1ccc([C@@H]2O[C@H](CO)[C@@H](O)[C@H](O)[C@H]2O)cc1Cc1ccc(-n2cccn2)s1` [Example 227], the IC50 was determined as 3.2 nM.
The same measure, in the same setting: the result for `CCOc1ccc2cc(Cc3cc([C@@H]4O[C@H](CO)[C@@H](O)[C@H](O)[C@H]4O)ccc3C)sc2c1` [Example 228] reads 3.6 nM; that for `COc1ccc2sc(Cc3cc([C@@H]4O[C@H](CO)[C@@H](O)[C@H](O)[C@H]4O)ccc3C)cc2c1` [Example 229], 2.7 nM; that for `Cc1ccc([C@@H]2O[C@H](CO)[C@@H](O)[C@H](O)[C@H]2O)cc1Cc1cc2cc(OCCF)ccc2s1` [Example 230], 4 nM.
With `CCOc1ccc2sc(Cc3cc([C@@H]4O[C@H](CO)[C@@H](O)[C@H](O)[C@H]4O)ccc3C)cc2c1` [Example 231], the IC50 amounted to 3.5 nM.
On the same count and under the same terms, in the case of `CCOc1ccc(-c2ccc(Cc3cc([C@@H]4O[C@H](CO)[C@@H](O)[C@H](O)[C@H]4O)ccc3C)s2)cc1` [Example 232] it was 4 nM; in that of `Cc1ccc([C@@H]2O[C@H](CO)[C@@H](O)[C@H](O)[C@H]2O)cc1Cc1cc2ccc(OCCF)cc2s1` [Example 235], 2.6 nM; in that of `Cc1ccc([C@@H]2O[C@H](CO)[C@@H](O)[C@H](O)[C@H]2O)cc1Cc1ccc(-c2ccc(OC(F)F)cc2)s1` [Example 237], 2.8 nM.
Consider `COc1ccc2cc(Cc3cc([C@@H]4O[C@H](CO)[C@@H](O)[C@H](O)[C@H]4O)ccc3C)sc2c1` [Example 238], for which the half-maximal inhibitory concentration (IC50) came out at 1.6 nM.
Still for that read-out and setting: the result for `OC[C@H]1O[C@@H](c2ccc(Cl)c(Cc3ccc(-c4ncco4)s3)c2)[C@H](O)[C@@H](O)[C@@H]1O` [Example 240] reads 1.2 nM; that for `Cc1ccc([C@@H]2O[C@H](CO)[C@@H](O)[C@H](O)[C@H]2O)cc1Cc1ccc(-c2ncco2)s1` [Example 241], 1 nM; that for `Cc1csc(-c2ccc(Cc3cc([C@@H]4O[C@H](CO)[C@@H](O)[C@H](O)[C@H]4O)ccc3Cl)s2)n1` [Example 244], 1.2 nM.
Take `Cc1cc(-c2ccc(Cc3cc([C@@H]4O[C@H](CO)[C@@H](O)[C@H](O)[C@H]4O)ccc3C)s2)on1` [Example 246]: the IC50 amounted to 6.4 nM.
Still for that read-out and setting: the result for `OC[C@H]1O[C@@H](c2ccc(F)c(Cc3ccc(-c4cccc(F)n4)s3)c2)[C@H](O)[C@@H](O)[C@@H]1O` [Example 248] reads 5.1 nM.
As to `O=Cc1ccc(-c2ccc(Cc3cc([C@@H]4O[C@H](CO)[C@@H](O)[C@H](O)[C@H]4O)ccc3Cl)s2)cc1` [Example 249, 1-(β-D-Glucopyranosyl)-4-chloro-3-(5-(4-formylphenyl)-2-thienylmethyl)benzene], the IC50 amounted to 4.3 nM.
The same measure, in the same setting: the result for `COc1c(Cc2ccc(Cl)s2)cc([C@@H]2O[C@H](CO)[C@@H](O)[C@H](O)[C@H]2O)c2ccccc12` [Example 250, 1-(β-D-Glucopyranosyl)-3-(5-chloro-2-thienylmethyl)-4-methoxynaphthalene] reads 4.2 nM; that for `Cc1nc(-c2ccc(Cc3cc([C@@H]4O[C@H](CO)[C@@H](O)[C@H](O)[C@H]4O)ccc3Cl)s2)cs1` [Example 252], 1.4 nM.
On the same count and under the same terms, in the case of `Cc1cc(-c2ccc(Cc3cc([C@@H]4O[C@H](CO)[C@@H](O)[C@H](O)[C@H]4O)ccc3Cl)s2)ccn1` [Example 253] it was 1.6 nM; in that of `OC[C@H]1O[C@@H](c2cc(Cc3ccc(-c4cccc(F)n4)s3)c(F)c3ccccc23)[C@H](O)[C@@H](O)[C@@H]1O` [Example 255], 6.5 nM.
On the same count and under the same terms, in the case of `OC[C@H]1O[C@@H](c2ccc(Cl)c(Cc3ccc(-c4ncc(F)s4)s3)c2)[C@H](O)[C@@H](O)[C@@H]1O` [Example 256] it was 3.1 nM; in that of `OCc1ccc(-c2ccc(Cc3cc([C@@H]4O[C@H](CO)[C@@H](O)[C@H](O)[C@H]4O)ccc3Cl)s2)cc1` [Example 264, 1-(β-D-glucopyranosyl)-4-chloro-3-(5-(4-hydroxymethylphenyl)-2-thienylmethyl)benzene], 1.5 nM.
`COc1c(Cc2ccc(-c3ccccc3)s2)cc([C@@H]2O[C@H](CO)[C@@H](O)[C@H](O)[C@H]2O)c2ccccc12` [Example 265, 1-(β-D-glucopyranosyl)-3-(5-phenyl-2-thienylmethyl)-4-methoxynaphthalene]: the IC50 amounted to 3.4 nM.
For `COc1c(Cc2ccc(-c3ncccn3)s2)cc([C@@H]2O[C@H](CO)[C@@H](O)[C@H](O)[C@H]2O)c2ccccc12` [Example 266], the IC50 worked out at 3.2 nM.
Same read-out and setting: the result for `COc1c(Cc2ccc(-c3cccc(C#N)c3)s2)cc([C@@H]2O[C@H](CO)[C@@H](O)[C@H](O)[C@H]2O)c2ccccc12` [Example 267] reads 1.5 nM.
Regarding `COc1c(Cc2ccc(-c3cccc(F)n3)s2)cc([C@@H]2O[C@H](CO)[C@@H](O)[C@H](O)[C@H]2O)c2ccccc12` [Example 268], the IC50 stood at 2.5 nM.

In another experiment the test system is Sprague-Dawley (SD) rats. Put plainly: Urinary glucose excretion test in rats. Format: in vivo, rat. To be noted: male SD rats, 30 mg/kg oral gavage, urine collected for 24 hours; daily amount of glucose excreted per individual. The protocol:
2. Urinary Glucose Excretion Test in Rats Test Compounds:
Compounds described in the above examples were used for the urinary glucose excretion test in rats.
6-week-old male Sprague-Dawley (SD) rats were housed in individual metabolic cages with free access to food and water from 2 days prior to the experiment. On the morning of the experiment, rats were administered vehicle (0.2% carboxymethyl cellulose solution containing 0.2% Tween80) or test compounds (30 mg/kg) by oral gavage at a volume of 10 ml/kg. Then, urine of the rat was collected for 24 hours, and the urine volume was measured. Subsequently, the glucose concentration in urine was quantified using the enzymatic assay kit and the daily amount of glucose excreted in urine per individual was calculated.
In the case of `Cc1ccc([C@@H]2O[C@H](CO)[C@@H](O)[C@H](O)[C@H]2O)cc1Cc1ccc(-c2ccc(F)nc2)s1` [Example 120, 1-(β-D-glucopyranosyl)-3-(5-(6-fluoro-3-pyridyl)-2-thienylmethyl)-4-methylbenzene], the Urinary glucose entry was “A (A≧2000 mg)”.
The same measure, in the same setting: the result for `N#Cc1cccc(-c2ccc(Cc3cc([C@@H]4O[C@H](CO)[C@@H](O)[C@H](O)[C@H]4O)ccc3Cl)s2)c1` [Example 123, 1-(β-D-glucopyranosyl)-4-chloro-3-(5-(3-cyanophenyl)-2-thienylmethyl)benzene] reads “A (A≧2000 mg)”; that for `Cc1ccc([C@@H]2O[C@H](CO)[C@@H](O)[C@H](O)[C@H]2O)cc1Cc1ccc(-c2cccc(C#N)c2)s1` [Example 127, 1-(β-D-glucopyranosyl)-3-(5-(3-cyanophenyl)-2-thienylmethyl)-4-methylbenzene], “A (A≧2000 mg)”; that for `CCc1cccc(-c2ccc(Cc3cc([C@@H]4O[C@H](CO)[C@@H](O)[C@H](O)[C@H]4O)ccc3C)s2)c1` [Example 140], “B (2000 mg>B≧1000 mg)”.
The same measure, in the same setting: in the case of `COc1ccc(-c2ccc(Cc3cc([C@@H]4O[C@H](CO)[C@@H](O)[C@H](O)[C@H]4O)ccc3C)s2)cc1` [Example 144] it was “B (2000 mg>B≧1000 mg)”; in that of `Cc1ccc([C@@H]2O[C@H](CO)[C@@H](O)[C@H](O)[C@H]2O)cc1Cc1ccc(-c2cccc(F)n2)s1` [Example 146], “A (A≧2000 mg)”; in that of `OC[C@H]1O[C@@H](n2cc(Cc3cc4ccccc4s3)c3ccccc32)[C@H](O)[C@@H](O)[C@@H]1O` [Example 195, 1-(β-D-glucopyranosyl)-3-(benzo[b]thiophen-2-ylmethyl)indole], “B (2000 mg>B≧1000 mg)”.
